# According to ChEMBL document CHEMBL3526000 (Drug Metab Dispos, 2012):
# Experiments:
# Format in all cases: ADME
# [1] = biological target: T1, UDP-glucuronosyltransferase 1A4 (Homo sapiens, UniProt P22310); assay: Drug metabolism assessed as UGT1A4 activity in human liver microsome assessed as of N-glucuronidation at 25 to 200 uM incubated for 60 mins by LC-MS/MS analysis; conditions: microsomes, 1 h
# T1 sequence (P22310 whole entry): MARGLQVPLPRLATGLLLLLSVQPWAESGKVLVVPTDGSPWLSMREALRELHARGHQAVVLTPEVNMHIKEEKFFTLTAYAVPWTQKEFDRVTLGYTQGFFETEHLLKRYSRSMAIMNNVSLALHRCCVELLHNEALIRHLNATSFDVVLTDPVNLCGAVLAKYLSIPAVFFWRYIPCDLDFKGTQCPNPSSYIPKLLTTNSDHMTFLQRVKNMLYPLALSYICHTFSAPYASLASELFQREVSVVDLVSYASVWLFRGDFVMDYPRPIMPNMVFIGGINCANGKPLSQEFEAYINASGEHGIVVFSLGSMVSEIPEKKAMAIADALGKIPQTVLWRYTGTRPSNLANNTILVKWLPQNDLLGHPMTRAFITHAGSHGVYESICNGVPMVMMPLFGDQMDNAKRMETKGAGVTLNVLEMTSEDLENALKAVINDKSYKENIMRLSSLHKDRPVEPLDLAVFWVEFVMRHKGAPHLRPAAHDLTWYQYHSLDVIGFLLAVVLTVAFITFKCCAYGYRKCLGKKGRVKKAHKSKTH
# Liver microsome = assay: Drug metabolism assessed as Sprague-Dawley rat liver microsomes assessed as compound formation treated with at 100 uM haloperidol by LC-MS/MS analysis
# [2] = biological target: T2, UDP-glucuronosyltransferase 2B7 (Homo sapiens, UniProt P16662); assay: Drug metabolism assessed as UGT2B7 activity in human liver microsome assessed as of O-glucuronidation at 25 to 200 uM incubated for 60 mins by LC-MS/MS analysis; conditions: microsomes, 1 h
# T2 sequence (P16662 whole entry): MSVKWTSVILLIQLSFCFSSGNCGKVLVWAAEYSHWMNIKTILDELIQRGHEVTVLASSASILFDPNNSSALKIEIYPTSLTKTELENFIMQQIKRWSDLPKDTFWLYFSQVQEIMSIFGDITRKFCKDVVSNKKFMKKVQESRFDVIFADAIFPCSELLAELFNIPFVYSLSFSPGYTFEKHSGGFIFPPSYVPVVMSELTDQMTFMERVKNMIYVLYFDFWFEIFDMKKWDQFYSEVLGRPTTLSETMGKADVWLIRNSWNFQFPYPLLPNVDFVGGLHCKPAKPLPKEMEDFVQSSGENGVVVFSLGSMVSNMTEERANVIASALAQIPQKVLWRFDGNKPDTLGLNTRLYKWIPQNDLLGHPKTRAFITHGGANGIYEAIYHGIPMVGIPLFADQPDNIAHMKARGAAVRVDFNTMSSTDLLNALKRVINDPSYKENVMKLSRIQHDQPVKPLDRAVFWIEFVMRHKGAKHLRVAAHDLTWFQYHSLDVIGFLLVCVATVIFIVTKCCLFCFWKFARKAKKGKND
smiles,measurement,setting,value
CN1CCN(CCCN2c3ccccc3Sc3ccc(C(F)(F)F)cc32)CC1.Cl,Drug metabolism,[1],0.26 nmol/min/mg
O=C(CCCN1CCC(O[C@@H]2O[C@H](C(=O)O)[C@@H](O)[C@H](O)[C@H]2O)(c2ccc(Cl)cc2)CC1)c1ccc(F)cc1,Drug metabolism,Liver microsome,metabolite_detected
Cc1cn([C@H]2C[C@H](N=[N+]=[N-])[C@@H](CO)O2)c(=O)[nH]c1=O [ZIDOVUDINE],Drug metabolism,[2],0.14 nmol/min/mg
